Laboratory results from patent publication US20040024543A1, “Methods and systems for analyzing complex biological systems” (priority 2001, published 2004).

Assays:
[1] = test system: Saccharomyces cerevisiae wild type strain BY4743; assay: AF1 yeast gene expression analysis (microarray) after antifungal drug treatment; type: cell-based; settings: 2×MIC, two hours
Protocol: Saccharomyces cerevisiae wild type strain BY4743 was purchased from American Type Culture Center (ATCC, Manassas, Va.). The yeast strain was grown in YPD or SD media. […] The cultures started from fresh single colonies were grown in 1.0 ml YPD overnight at 30° C. […] The OD600 was adjusted to 1.0 with YPD media, then 2.0 ml of each was inoculated into three 250 ml flasks, each containing 50 ml of SD media. […] The cells were kept growing for another two hours, then collected by centrifugation at 4000 rpm for 5 minutes at 4° C. Pellets were washed once with ice-cold water, then were lyophilized overnight at 4° C. […] Tubes were vortexed for 30 seconds, then incubated for 10 minutes at room temperature (RT). […] Tubes were incubated for 10 minutes at RT. Samples were centrifuged for 20 minutes as before. Pellets were washed with 400 μl 70% ethanol and centrifuged for 10 minutes as before. The pellet was then dissolved in 100 μl nuclease-free water. RNA quality was determined using the Bioanalyzer 2100 and the RNA 6000 assay (Agilent Technologies, Palo Alto, Calif.) according to manufacturer's instructions. RNA concentrations were determined spectrophotometrically by measuring the absorption at 260 nm in an Ultrospec 2000 (Pharmacia Biotech, Piscataway, N.J.). […] Labeled cRNAs were evaluated using the RNA 6000 assay on the Agilent Bioanalyzer 2100. Labeled cRNA concentrations were determined spectrophotometrically by measuring the absorption at 260 nm in an Ultrospec 2000 (Pharmacia Biotech, Piscataway, N.J.). […] Each pair of samples to be hybridized were independently labeled and hybridized utilizing a fluor reversal for a total of two hybridizations per sample pair. […] Each feature was determined from an array's associated pattern file and a detection algorithm. Intensity values for each feature were determined after subtracting background derived from an average of negative control features. […] Data was evaluated after combining results from fluor reversal replicate hybridizations. […]

Arabidopsis thaliana [2] = assay: MOA1 biochemical (metabolite) profiling by LC-MS and GC-MS of sprayed Arabidopsis; settings: for stress-related (commonly regulated) metabolites: MOA1, 20 min and 1 hour after spraying
Arabidopsis thaliana [3] = assay: MOA1 phenotypic profiling of sprayed Arabidopsis (symptom scores, cluster analysis); type: in vivo; settings: MOA1, in words
Arabidopsis thaliana [4] = assay: MOA1 gene expression profiling (22,000 gene arrays) of sprayed Arabidopsis; settings: regulated genes at 1 hr compared with internal list of essential genes
Magnaporthe grisea = type: cell-based
Arabidopsis thaliana [5] = assay: SOA1 phenotypic analysis of herbicide-treated Arabidopsis (MIC, Tmic, leaf traits); type: in vivo; settings: for characteristic morphological symptoms: SOA1, in words; for tMic (Dev.): SOA1, coded score of time to full range of symptoms at MIC

SMILES | # Transripts perturbed by treatment ([1]; P < 0.05) | stress-related (commonly regulated) metabolites (Arabidopsis thaliana [2]) | characteristic morphological symptoms (Arabidopsis thaliana [5]) | tMic (Dev.) (Arabidopsis thaliana [5]) | also measured
C[C@@H]1[C@H](O)[C@@H](C)/C=C/C=C/C=C/C=C/C=C/C=C/C=C/[C@H](O[C@@H]2O[C@H](C)[C@@H](O)[C@H](N)[C@@H]2O)C[C@@H]2O[C@](O)(C[C@@H](O)C[C@@H](O)[C@H](O)CC[C@@H](O)C[C@@H](O)CC(=O)O[C@H]1C)C[C@H](O)[C@H]2C(=O)O [Amphoteracin B] | 4363 | – | – | – | # Transripts perturbed by treatment ([1]; P < 0.1): 4652
CC(C)OC(=O)Nc1cccc(Cl)c1 [Chloropropham] | – | neither butylate nor chlorpropham treatment resulted in many changes in these commonly regulated metabolites | – | – | observed phenotype (Arabidopsis thaliana [3]): neither showed a strong herbicidal phenotype
CP(=O)(O)CCC(N)C(=O)O (stereo not drawn) [Glufosinate] | – | Only a few, if any | Chlorosis and leaf curling | 1 | No. of Lethal Genes Altered (Arabidopsis thaliana [4]): 10; nitrogen source utilization of M. grisea (Magnaporthe grisea; in the presence of the compound): only able to utilize glutamine and glutamate as nitrogen sources
O=C(O)CNCP(=O)(O)O [Glyphosate] | – | – | anthocyanin accumulation in the older leaves accompanied by chlorosis of the newly emerging leaves | 2 | growth of M. grisea with ammonium or glutamine provided (Magnaporthe grisea): Little growth defect; growth inhibition and remediation (Magnaporthe grisea; 1.0 mg/ml): remediated by inclusion of aromatic amino acids; tyrosine level relative to the control (Arabidopsis thaliana [2]; MOA1, early time points / after one hour): decreased
CC[C@@H]([C@H](C)O)n1ncn(-c2ccc(N3CCN(c4ccc(OC[C@@H]5CO[C@@](Cn6cncn6)(c6ccc(F)cc6F)C5)cc4)CC3)cc2)c1=O [Posaconazole] | 690 | – | – | – | –
